How the values were obtained:
Type in all cases: biochemical
JurBglKC603 [1] = target: T1, JurBglKC603 (Jiangella ureilytica, UniProt A0A4R4RWQ6, T2A); assay: glucose release by GOPOD assay, Lineweaver-Burk; details: 50 mM sodium citrate pH 6, 40 °C, 1 h; substrate 0.2-1 mM
T1 construct: gene E1212_03180; catalytic Glu165 and Glu356
T1 sequence (A0A4R4RWQ6 1-457 T2A): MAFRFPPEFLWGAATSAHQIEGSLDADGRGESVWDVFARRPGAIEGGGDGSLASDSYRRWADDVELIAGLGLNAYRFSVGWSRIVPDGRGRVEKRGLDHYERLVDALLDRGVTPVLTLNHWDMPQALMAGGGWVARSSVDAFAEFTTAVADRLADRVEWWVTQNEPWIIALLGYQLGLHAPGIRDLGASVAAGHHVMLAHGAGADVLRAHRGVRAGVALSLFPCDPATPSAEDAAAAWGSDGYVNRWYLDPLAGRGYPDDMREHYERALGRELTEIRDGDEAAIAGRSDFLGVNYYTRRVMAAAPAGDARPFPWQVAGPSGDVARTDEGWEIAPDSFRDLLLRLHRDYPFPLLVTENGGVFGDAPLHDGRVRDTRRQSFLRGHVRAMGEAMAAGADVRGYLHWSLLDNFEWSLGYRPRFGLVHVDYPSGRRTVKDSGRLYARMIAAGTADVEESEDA
Description: glucose release by GOPOD assay, Lineweaver-Burk on JurBglKC603

JurBglKC603 [2] = target: T1, JurBglKC603; assay: pNP release at […] nm, Lineweaver-Burk; details: 50 mM sodium citrate pH 6, 35 °C; substrate 0.1-7 mM; read-out: Kinetic parameters / Km
JurBglKC603 [3] = target: T1, JurBglKC603; assay: pNPG hydrolysis with added glucose, relative activity; details: 3 M; 4 mM pNPG, 50 mM sodium citrate pH 6, 35 °C; glucose is also the reaction product
Description: pNPG hydrolysis with added glucose, relative activity on JurBglKC603

For `OC[C@H]1O[C@@H](Oc2cc(O)cc(/C=C/c3ccc(O)cc3)c2)[C@H](O)[C@@H](O)[C@@H]1O` [polydatin], the Km (JurBglKC603 [1]) was 4600 µM.

`O=[N+]([O-])c1ccc(O[C@@H]2O[C@H](CO)[C@@H](O)[C@H](O)[C@H]2O)cc1` [pNPG, para-nitrophenyl β-D-glucopyranoside] showed a Km (JurBglKC603 [2]) of 440 µM.

In the case of `OC[C@H]1OC(O)[C@H](O)[C@@H](O)[C@@H]1O` (stereo partly drawn) [glucose], the Glucose tolerance (JurBglKC603 [3]) is reported as 58%.

Source: article PMC12334443, “Biochemical Characterization of a Novel, Glucose-Tolerant β-Glucosidase from Jiangella ureilytica KC603, and Determination of Resveratrol Production Capacity from Polydatin” (Applied Biochemistry and Biotechnology, 2025)
